From PMC6017000, “Distribution Assessments of Coumarins from Angelicae Pubescentis Radix in Rat Cerebrospinal Fluid and Brain by Liquid Chromatography Tandem Mass Spectrometry Analysis” (Molecules : A Journal of Synthetic Chemistry and Natural …, 2018)
Read-outs that look alike come from different tables or passages of the source.

What was measured:
[1] = Stability of QC samples in rat brain homogenate (freeze-thaw, room temperature); type: physicochemical; details: percentage remaining, n = 5; for Stability room temperature: room temperature 24 h; for Stability Freeze-thaw: three freeze-thaw cycles
[2] = tested on: in vitro BBB model; parameters: method as in PMID 26121397; details: based on bidirectional Papp values; cited from earlier work
[3] = Rat CSF distribution after oral administration of APRE (UPLC-MS/MS); details: for AUC(0-inf) / AUC(0-t) / Cmax / Tmax / half-life / total amount percentage of CSF/plasma: rat; for AUC(0-inf) / AUC(0-t) / Cmax / Tmax / half-life: CSF, po, 4 g/kg; for total amount percentage of CSF/plasma: (0.48 × AUC0→∞/CSF)/(16 × AUC0→∞/plasma), oral APRE
Procedure: (§1) Aliquots of 50 μL CSF samples with IS (10 μL, 200 ng/mL) were extracted with 600 μL ethyl acetate.
(§2) The UPLC-MS/MS system consisted of a Shimadzu Nexera UPLC instrument connected to a Shimadzu LCMS-8050 mass spectrometer via the electrospray ionization interface (Shimadzu Corp., Kyoto, Japan). Samples were separated on an ACQUITY UPLC BEH RP18 column (2.1 × 100 mm, 1.7 µm, Waters, Milford, MA, USA) equipped with a BEH RP18 guard column (2.1 × 5 mm, 1.7 µm, Waters, Milford, MA, USA). The column temperature was 30 °C, and the flow rate was 0.4 mL/min. The sample injection volume was 5 µL. The mobile phases consisted of 0.1% (v/v) formic acid in water (A) and ACN (B). […] The precursor ion, product ion, Q1, Q3, CE and DT were optimized.
(§3) The time schedule included 9 time-points, and six rats were sampled at each time-point. The rats were fasted overnight with free access to water before the experiment. APRE was suspended with the normal saline and orally administered to the rats at a single dose of 4 g/kg. The animals had free access to water during the experiment.
(§4) Rats were anesthetized by an intraperitoneal dose of chloral hydrate (350 mg/kg) at 0.25, 0.5, 1, 1.5, 2, 4, 6, 8, 12 h after oral administration of APRE. A dorsal midline cutaneous incision was made, and the muscle at the craniocervical junction was bluntly dissected to expose the atlanto-occipital membrane. The cisterna magna was punctured with a thin syringe needle, and a microinjector connected with the needle was used to collect the interior CSF carefully [27]. Clear CSF was transferred to a clean microtube and frozen at −80 °C until further use. Blood contaminated samples were excluded.
(§5) Results were expressed as the mean ± standard deviation (SD). The UPLC-MS/MS data were processed with Labsolutions 5.65 software (Shimadzu Corp., Kyoto, Japan). The pharmacokinetic parameters were calculated with the Drug and Statistics 2.0 software (Mathematical Pharmacology Professional Committee of China, Shanghai, China).

[4] = Rat brain distribution after oral administration of APRE (UPLC-MS/MS); details: for log BBexpt.: log (AUC0→∞/brain/AUC0→∞/plasma), oral APRE; for log BBexpt. / Tmax / half-life / Kp: rat; for AUC0→t / AUC0→∞ / CLz/F / Vz/F: rat brain, oral APRE 4 g/kg, mean ± SD, n = 6; for Tmax / half-life: brain; for Tmax / half-life / Kp: po, 4 g/kg; for Kp: brain/plasma
Procedure: (§6) Each weighed brain sample was homogenized with a 2-fold volume of normal saline solution. IS solution (10 μL, 200 ng/mL) was added to 300 μL of the homogenate. The mixture was then extracted with a 3-fold volume of ethyl acetate. The mixture was vortexed for 1 min and centrifuged at 16,000× g for 10 min. The supernatant was transferred out and dried under a gentle constant flow of nitrogen. The residue was then dissolved with 100 μL of MeOH and ultrasonically (power 250 W, frequency 40 KHz) extracted for 10 min. After centrifugation at 16,000× g for 10 min, the supernatant was drawn out into a clean vial, and 5 μL of each were injected into the UPLC–MS/MS system for analysis.
(§7) The UPLC-MS/MS system consisted of a Shimadzu Nexera UPLC instrument connected to a Shimadzu LCMS-8050 mass spectrometer via the electrospray ionization interface (Shimadzu Corp., Kyoto, Japan). Samples were separated on an ACQUITY UPLC BEH RP18 column (2.1 × 100 mm, 1.7 µm, Waters, Milford, MA, USA) equipped with a BEH RP18 guard column (2.1 × 5 mm, 1.7 µm, Waters, Milford, MA, USA). The column temperature was 30 °C, and the flow rate was 0.4 mL/min. The sample injection volume was 5 µL. The mobile phases consisted of 0.1% (v/v) formic acid in water (A) and ACN (B). The LC gradient elution program and mass working parameters were the same as our previous report [6]. […] The precursor ion, product ion, Q1, Q3, CE and DT were optimized.
as §3
(§8) Cardiac perfusion was carried out quickly with physiological saline after CSF collection at each time-point. The rat brains were separated, weighed and then stored at −80 °C until treatment.
as §5

[5] = Stability of QC samples in aCSF (freeze-thaw, room temperature); type: physicochemical; details: percentage remaining, n = 5; for Stability room temperature: room temperature 24 h; for Stability Freeze-thaw: three freeze-thaw cycles
[6] = parameters: method as in PMID 28654868; details: rat plasma, oral APRE; cited from earlier work
[7] = rat, in vivo, po
Procedure: as §1, §2, §3, §4, §5

[8] = rat, in vivo, po; remark: listed apart in the source
Procedure: as §6, §7, §3, §8, §5

Structure (SMILES) | Stability room temperature ([1]; rat brain QC 5 ng/mL) | Stability Freeze-thaw ([1]; rat brain QC 5 ng/mL) | Stability room temperature ([1]; rat brain QC 80 ng/mL) | Stability Freeze-thaw ([1]; rat brain QC 80 ng/mL) | Stability room temperature ([1]; rat brain QC 160 ng/mL) | Stability Freeze-thaw ([1]; rat brain QC 160 ng/mL) | log BBexpt. [4] | AUC0→t [4] | AUC0→∞ [4] | CLz/F [4] | Vz/F [4] | Tmax [4] | half-life [4] | Stability room temperature ([5]; aCSF QC 5 ng/mL) | Stability Freeze-thaw ([5]; aCSF QC 5 ng/mL) | AUC(0-inf) [3] | AUC(0-t) [3] | Cmax [3] | Tmax [3] | half-life [3] | also measured
CC(C)=CCOc1c2ccoc2cc2oc(=O)ccc12 [Compound 4, isoimperatorin] | 91.59±10.74% | 104.96±13.66% | 88.65±10.02% | 93.10±4.03% | 86.85±3.37% | 89.68±3.96% | −0.16 | 15.51 ± 4.82 µg·h/kg | 21.56 ± 14.56 µg·h/kg | 52.86 ± 24.79 g/h/kg | 245.44 ± 108.54 g/kg | 0.33 ± 0.13 h | 3.54 ± 1.35 h | – | – | – | – | – | – | – | absorption classification across the in vitro BBB model [2]: moderately-absorbed; MRM response in CSF ([3]; rat CSF after oral APRE): under LLOQ
CC(C)(O)[C@@H]1Cc2c(ccc3ccc(=O)oc23)O1 [Compound 5, columbianetin] | 97.88±10.06% | 105.83±7.01% | – | – | – | – | – | 13,438.17 ± 2016.06 µg/kg·h | 16,664.04 ± 3662.67 µg/kg·h | 0.11 ± 0.02 g/h/kg | 0.57 ± 0.39 g/kg | 4 ± 1.79 h | 3.92 ± 3.33 h | 97.23±8.25% | 96.35±9.69% | 4140 ± 602 ng·h/mL | 3370 ± 604 ng·h/mL | 485 ± 91.4 ng/mL | 5 ± 1.1 h | 4.06 ± 2.42 h | Stability room temperature ([5]; aCSF QC 320 ng/mL): 93.93±2.94%; Stability Freeze-thaw ([5]; aCSF QC 320 ng/mL): 93.46±8.56%; Stability room temperature ([5]; aCSF QC 640 ng/mL): 99.45±9.62%; Stability Freeze-thaw ([5]; aCSF QC 640 ng/mL): 93.87±4.82%; Stability room temperature ([1]; rat brain QC 1200 ng/mL): 89.46±3.10%; Stability Freeze-thaw ([1]; rat brain QC 1200 ng/mL): 91.69±3.42%; Stability room temperature ([1]; rat brain QC 2400 ng/mL): 91.21±6.60%; Stability Freeze-thaw ([1]; rat brain QC 2400 ng/mL): 87.85±9.09%; plasma Cmax [6]: 2240.32 ± 1031.92 ng/mL; Kp [4]: 0.08
CC=C(C)C(=O)OC(C(O)c1cc2ccc(=O)oc2cc1OC)C(C)(C)O (stereo not drawn) [Compound 9, angelol B] | 96.24±7.79% | 101.51±11.81% | 97.77±8.23% | 95.20±9.40% | 96.20±7.07% | 102.98±8.06% | −0.44 | 21.06 ± 8.70 µg·h/kg | 25.06 ± 8.03 µg·h/kg | 301.26 ± 92.33 g/h/kg | 1299.16 ± 842.00 g/kg | 0.29 ± 0.1 h | 2.77 ± 1.15 h | 97.45±4.87% | 95.14±6.53% | 28.2 ± 3.94 ng·h/mL | 20 ± 3.35 ng·h/mL | 7.65 ± 4.14 ng/mL | 0.38 ± 0.31 h | 7.02 ± 2.51 h | Stability room temperature ([5]; aCSF QC 40 ng/mL): 95.67±3.47%; Stability Freeze-thaw ([5]; aCSF QC 40 ng/mL): 95.36±7.29%; Stability room temperature ([5]; aCSF QC 80 ng/mL): 96.66±9.22%; Stability Freeze-thaw ([5]; aCSF QC 80 ng/mL): 96.89±4.68%; CL in plasma [6]: 110.26 ± 39.27 g/h/kg; t1/2 in plasma [6]: 6.63 ± 4.37 h; total amount percentage of CSF/plasma [3]: greater than 1%
CC(C)=CCOc1c2occc2cc2ccc(=O)oc12 [imperatorin] | – | – | – | – | – | – | – | – | – | – | – | – | – | – | – | – | – | – | – | – | MRM response in CSF [7]: under LLOQ; MRM response in brain [8]: under LLOQ

Now from value to compound, other results behind:

Stability room temperature ([1]; rat brain QC 5 ng/mL) | Stability Freeze-thaw ([1]; rat brain QC 5 ng/mL) | Stability room temperature ([1]; rat brain QC 80 ng/mL) | Stability Freeze-thaw ([1]; rat brain QC 80 ng/mL) | Stability room temperature ([1]; rat brain QC 160 ng/mL) | Stability Freeze-thaw ([1]; rat brain QC 160 ng/mL) | log BBexpt. [4] | AUC0→t [4] | AUC0→∞ [4] | CLz/F [4] | Vz/F [4] | Tmax [4] | half-life [4] | Stability room temperature ([5]; aCSF QC 5 ng/mL) | Stability Freeze-thaw ([5]; aCSF QC 5 ng/mL) | AUC(0-inf) [3] | AUC(0-t) [3] | Cmax [3] | Tmax [3] | half-life [3] | Structure (SMILES) | also measured
99.12±3.06% | 95.53±4.36% | 101.64±8.78% | 98.42±10.02% | 96.43±4.95% | 98.13±6.85% | – | 1327.91 ± 341.99 µg·h/kg | 2105.63 ± 1100.15 µg·h/kg | 13.96 ± 7.04 g/h/kg | 60.18 ± 25.11 g/kg | 0.35 ± 0.14 h | 5.36 ± 2.15 h | 95.92±3.20% | 94.43±7.49% | 30.5 ± 1.53 ng·h/mL | 27.7 ± 2.88 ng·h/mL | 4.31 ± 1.49 ng/mL | 2.83 ± 2.84 h | 3.19 ± 1.16 h | COc1ccc2ccc(=O)oc2c1CC=C(C)C [Compound 10, osthole] | Stability room temperature ([5]; aCSF QC 40 ng/mL): 94.93±5.05%; Stability Freeze-thaw ([5]; aCSF QC 40 ng/mL): 95.90±8.12%; Stability room temperature ([5]; aCSF QC 80 ng/mL): 93.50±6.38%; Stability Freeze-thaw ([5]; aCSF QC 80 ng/mL): 97.71±2.91%; Kp [4]: 0.15
97.21±8.86% | 94.71±4.63% | – | – | – | – | −0.10 | 1752.16 ± 249.82 µg·h/kg | 1948.10 ± 305.84 µg·h/kg | 0.86 ± 0.13 g/h/kg | 4.46 ± 1.60 g/kg | 1.29 ± 1.5 h | 3.64 ± 1.4 h | 92.02±3.40% | 96.16±10.07% | 754 ± 142 ng·h/mL | 676 ± 108 ng·h/mL | 129 ± 20.2 ng/mL | 2.17 ± 0.98 h | 3.37 ± 0.75 h | COc1ccc2ccc(=O)oc2c1CC(O)C(C)(C)O (stereo not drawn) [Compound 11, Meranzin hydrate] | Stability room temperature ([5]; aCSF QC 120 ng/mL): 99.09±5.56%; Stability Freeze-thaw ([5]; aCSF QC 120 ng/mL): 95.58±7.24%; Stability room temperature ([5]; aCSF QC 240 ng/mL): 103.10±9.99%; Stability Freeze-thaw ([5]; aCSF QC 240 ng/mL): 94.40±4.03%; Stability room temperature ([1]; rat brain QC 200 ng/mL): 96.58±7.80%; Stability Freeze-thaw ([1]; rat brain QC 200 ng/mL): 97.28±10.13%; Stability room temperature ([1]; rat brain QC 400 ng/mL): 95.82±9.16%; Stability Freeze-thaw ([1]; rat brain QC 400 ng/mL): 104.50±7.46%
94.83±5.41% | 98.18±2.46% | – | – | – | – | – | 933.83 ± 66.51 µg·h/kg | 1560.07 ± 730.91 µg·h/kg | 0.779 ± 0.26 g/h/kg | 6.30 ± 2.22 g/kg | 5.33 ± 1.03 h | 6.27 ± 3.19 h | 102.33±8.37% | 101.36±5.89% | 625 ± 249 ng·h/mL | 331 ± 43.2 ng·h/mL | 43.5 ± 5.98 ng/mL | 6.33 ± 0.82 h | 6.69 ± 2.25 h | CC(C)(O)[C@H]1Cc2cc3ccc(=O)oc3cc2O1 [Compound 12, nodakenetin] | Stability room temperature ([5]; aCSF QC 120 ng/mL): 101.14±5.08%; Stability Freeze-thaw ([5]; aCSF QC 120 ng/mL): 92.78±5.37%; Stability room temperature ([5]; aCSF QC 240 ng/mL): 99.91±7.69%; Stability Freeze-thaw ([5]; aCSF QC 240 ng/mL): 95.63±4.23%; Stability room temperature ([1]; rat brain QC 200 ng/mL): 97.69±5.38%; Stability Freeze-thaw ([1]; rat brain QC 200 ng/mL): 101.08±9.25%; Stability room temperature ([1]; rat brain QC 400 ng/mL): 95.56±2.64%; total amount percentage of CSF/plasma [3]: greater than 1%; Kp [4]: 0.01
